# Test results reported in publication PMC5218480 (PLoS ONE, 2017).
# Tested on: MV-4-11 cells
# Assay: Gene expression microarray analysis (Affymetrix PrimeView) and GSEA
# Assay type: cell-based, human
# Design: RFU PODN (11730768_x_at) / Fold change /veh PODN (11730768_x_at) / RFU LINC00158 (11744669_a_at) / Fold change /veh LINC00158 (11744669_a_at) / RFU DUSP10 (11751237_a_at) / Fold change /veh DUSP10 (11751237_a_at) / RFU ID3 (11757404_x_at) / Fold change /veh ID3 (11757404_x_at) / RFU PLEKHG5 (11737974_s_at) / Fold change /veh PLEKHG5 (11737974_s_at) / RFU LRRC4B (11730491_at) / Fold change /veh LRRC4B (11730491_at) / RFU GIMAP4 (11747438_a_at) / Fold change /veh GIMAP4 (11747438_a_at) / RFU KRT8 (11758183_x_at) / Fold change /veh KRT8 (11758183_x_at) / RFU CNN1 (11734310_a_at) / Fold change /veh CNN1 (11734310_a_at) / RFU VPS37D (11726825_at) / Fold change /veh VPS37D (11726825_at) / RFU C10orf10 (11716522_x_at) / Fold change /veh C10orf10 (11716522_x_at) / RFU KIR2DL2 /// KIR2DL4 /// KIR2DL5A /// KIR2DL5B /// KIR2DS1 /// KIR2DS2 /// KIR2DS3 /// KIR2DS4 /// KIR3DL3 /// KIR3DL3 /// KIR3DS1 (11738374_at) / Fold change /veh KIR2DL2 /// KIR2DL4 /// KIR2DL5A /// KIR2DL5B /// KIR2DS1 /// KIR2DS2 /// KIR2DS3 /// KIR2DS4 /// KIR3DL3 /// KIR3DL3 /// KIR3DS1 (11738374_at) / RFU C1QL1 (11718748_at) / Fold change /veh C1QL1 (11718748_at) / RFU TMPRSS4 (11747572_a_at) / Fold change /veh TMPRSS4 (11747572_a_at) / RFU HAMP (11756126_x_at) / Fold change /veh HAMP (11756126_x_at) / RFU RNFT2 (11725882_a_at) / Fold change /veh RNFT2 (11725882_a_at) / RFU NR4A2 (11747474_a_at) / Fold change /veh NR4A2 (11747474_a_at) / RFU ABCC12 (11746883_a_at) / Fold change /veh ABCC12 (11746883_a_at) / RFU TMEM136 (11760407_x_at) / Fold change /veh TMEM136 (11760407_x_at) / RFU CLDN22 /// WWC2 (11732394_at) / Fold change /veh CLDN22 /// WWC2 (11732394_at) / RFU HLA-DPB1 (11760878_x_at) / Fold change /veh HLA-DPB1 (11760878_x_at) / RFU SPINT1 (11716480_a_at) / Fold change /veh SPINT1 (11716480_a_at) / RFU GAP43 (11754022_s_at) / Fold change /veh GAP43 (11754022_s_at) / RFU A4GNT (11735810_at) / Fold change /veh A4GNT (11735810_at) / RFU PRB3 (11715151_x_at) / Fold change /veh PRB3 (11715151_x_at) / RFU TUBB4B (11761932_at) / Fold change /veh TUBB4B (11761932_at) / RFU CAPN14 (11732068_a_at) / Fold change /veh CAPN14 (11732068_a_at) / RFU TMCC2 (11721928_a_at) / Fold change /veh TMCC2 (11721928_a_at) / RFU IRGQ (11745062_a_at) / Fold change /veh IRGQ (11745062_a_at) / RFU FAM174B (11720279_a_at) / Fold change /veh FAM174B (11720279_a_at) / RFU TMPRSS4 (11748680_a_at) / Fold change /veh TMPRSS4 (11748680_a_at) / RFU FAM212B (11763350_a_at) / Fold change /veh FAM212B (11763350_a_at) / RFU PLEKHG5 (11743358_a_at) / Fold change /veh PLEKHG5 (11743358_a_at) / RFU ZSCAN30 (11745921_a_at) / Fold change /veh ZSCAN30 (11745921_a_at) / RFU CMKLR1 (11741424_a_at) / Fold change /veh CMKLR1 (11741424_a_at) / RFU LOC101060620 /// MAPK8IP1 (11723275_at) / Fold change /veh LOC101060620 /// MAPK8IP1 (11723275_at) / RFU SPTSSB (11747773_x_at) / Fold change /veh SPTSSB (11747773_x_at) / RFU PRSS12 (11739890_at) / Fold change /veh PRSS12 (11739890_at) / RFU BIN1 (11741810_x_at) / Fold change /veh BIN1 (11741810_x_at) / RFU WNT11 (11732464_a_at) / Fold change /veh WNT11 (11732464_a_at) / RFU C10orf10 (11716521_a_at) / Fold change /veh C10orf10 (11716521_a_at) / RFU C5orf56 (11738089_at) / Fold change /veh C5orf56 (11738089_at) / RFU CYB561 (11721691_x_at) / Fold change /veh CYB561 (11721691_x_at) / RFU ANKRD19P (11752326_a_at) / Fold change /veh ANKRD19P (11752326_a_at) / RFU OR2T12 /// OR2T33 /// OR2T8 (11738714_s_at) / Fold change /veh OR2T12 /// OR2T33 /// OR2T8 (11738714_s_at) / RFU VCAN (11748164_a_at) / Fold change /veh VCAN (11748164_a_at) / RFU JSRP1 (11732532_at) / Fold change /veh JSRP1 (11732532_at) / RFU KRTAP10-11 (11738290_x_at) / Fold change /veh KRTAP10-11 (11738290_x_at) / RFU MYO3A (11730013_a_at) / Fold change /veh MYO3A (11730013_a_at) / RFU EBF3 (11725865_a_at) / Fold change /veh EBF3 (11725865_a_at) / RFU CAMK2N1 (11719241_x_at) / Fold change /veh CAMK2N1 (11719241_x_at) / RFU C5orf56 (11738088_a_at) / Fold change /veh C5orf56 (11738088_a_at) / RFU OLFML3 (11715873_a_at) / Fold change /veh OLFML3 (11715873_a_at) / RFU LOC100653217 /// NTM (11731650_a_at) / Fold change /veh LOC100653217 /// NTM (11731650_a_at) / RFU MAPK11 (11762145_a_at) / Fold change /veh MAPK11 (11762145_a_at) / RFU FIZ1 (11724087_x_at) / Fold change /veh FIZ1 (11724087_x_at) / RFU OASL (11726364_x_at) / Fold change /veh OASL (11726364_x_at) / RFU SOX15 (11748057_x_at) / Fold change /veh SOX15 (11748057_x_at) / RFU CD79A (11719716_a_at) / Fold change /veh CD79A (11719716_a_at) / RFU HIST1H1D (11736915_at) / Fold change /veh HIST1H1D (11736915_at) / RFU CASKIN2 (11723855_a_at) / Fold change /veh CASKIN2 (11723855_a_at) / RFU LOC730098 (11760151_x_at) / Fold change /veh LOC730098 (11760151_x_at) / RFU OR4N2 (11742367_at) / Fold change /veh OR4N2 (11742367_at) / RFU PRRT2 (11749266_a_at) / Fold change /veh PRRT2 (11749266_a_at) / RFU SNX32 (11753110_a_at) / Fold change /veh SNX32 (11753110_a_at) / RFU CDHR5 (11726645_a_at) / Fold change /veh CDHR5 (11726645_a_at) / RFU RCAN1 (11760418_a_at) / Fold change /veh RCAN1 (11760418_a_at) / RFU FAM167A (11723789_a_at) / Fold change /veh FAM167A (11723789_a_at) / RFU FAM26E (11764081_at) / Fold change /veh FAM26E (11764081_at) / RFU ISYNA1 (11749810_s_at) / Fold change /veh ISYNA1 (11749810_s_at) / RFU ACY1 (11761880_at) / Fold change /veh ACY1 (11761880_at) / RFU 11764098_at / Fold change /veh 11764098_at / RFU SAMD14 (11745864_x_at) / Fold change /veh SAMD14 (11745864_x_at) / RFU NPB (11741838_a_at) / Fold change /veh NPB (11741838_a_at) / RFU TMPRSS6 (11731388_a_at) / Fold change /veh TMPRSS6 (11731388_a_at) / RFU KRTAP10-2 (11738614_at) / Fold change /veh KRTAP10-2 (11738614_at) / RFU ARHGAP8 /// PRR5-ARHGAP8 (11727945_x_at) / Fold change /veh ARHGAP8 /// PRR5-ARHGAP8 (11727945_x_at) / RFU KRTAP5-7 /// NADSYN1 (11734609_at) / Fold change /veh KRTAP5-7 /// NADSYN1 (11734609_at) / RFU RASL12 (11751679_a_at) / Fold change /veh RASL12 (11751679_a_at) / RFU CDKN2B (11736163_a_at) / Fold change /veh CDKN2B (11736163_a_at) / RFU PRF1 (11729649_at) / Fold change /veh PRF1 (11729649_at) / RFU, ZNF638 /// ZNF638-IT1 / Fold change vs veh, ZNF638 /// ZNF638-IT1 / RFU, PANK3 / Fold change vs veh, PANK3 / RFU, SH3YL1 / Fold change vs veh, SH3YL1 / RFU, ZEB2 / Fold change vs veh, ZEB2 / RFU, NRIP1 / Fold change vs veh, NRIP1 / RFU, PTTG1IP / Fold change vs veh, PTTG1IP / RFU, CAPN2 / Fold change vs veh, CAPN2 / RFU, MED14 / Fold change vs veh, MED14 / RFU, SNORA58 / Fold change vs veh, SNORA58 / RFU, C1orf63 / Fold change vs veh, C1orf63 / RFU, LRRFIP1 / Fold change vs veh, LRRFIP1 / RFU, NDUFAF7 / Fold change vs veh, NDUFAF7 / RFU, SLC12A2 / Fold change vs veh, SLC12A2 / RFU, IBTK / Fold change vs veh, IBTK / RFU, ESF1 / Fold change vs veh, ESF1 / Fold change vs veh, TMEM50B / RFU, TAOK1 / Fold change vs veh, TAOK1 / RFU, ACBD3 / Fold change vs veh, ACBD3 / RFU, TMA16 / Fold change vs veh, TMA16 / RFU, RWDD3 / Fold change vs veh, RWDD3 / RFU, BCAT1 / Fold change vs veh, BCAT1 / RFU, EDEM3 / Fold change vs veh, EDEM3 / RFU, TMEM33 / Fold change vs veh, TMEM33 / RFU, WDR75 / Fold change vs veh, WDR75 / RFU, AHCTF1 / Fold change vs veh, AHCTF1 / RFU, TFRC / Fold change vs veh, TFRC / RFU, ZDHHC17 / Fold change vs veh, ZDHHC17 / RFU, NOM1 / Fold change vs veh, NOM1 / RFU, ARL8B / Fold change vs veh, ARL8B / RFU, ZBTB11 / Fold change vs veh, ZBTB11 / RFU, TAMM41 / Fold change vs veh, TAMM41 / RFU, KIAA1704 /// LOC100996395 / Fold change vs veh, KIAA1704 /// LOC100996395 / RFU, ING1 / Fold change vs veh, ING1 / RFU, TRMT61B / Fold change vs veh, TRMT61B / RFU, FUBP3 / Fold change vs veh, FUBP3 / RFU, TP53 / Fold change vs veh, TP53 / RFU, TNKS2 / Fold change vs veh, TNKS2 / RFU, ZFP14 / Fold change vs veh, ZFP14 / RFU, ACTR2 / Fold change vs veh, ACTR2 / RFU, PPP3R1 / Fold change vs veh, PPP3R1 / RFU, PIK3R1 / Fold change vs veh, PIK3R1 / RFU, HNRNPA1 / Fold change vs veh, HNRNPA1 / RFU, RNF170 / Fold change vs veh, RNF170 / RFU, ZNF28 / Fold change vs veh, ZNF28 / RFU, RNGTT / Fold change vs veh, RNGTT / RFU, OGT / Fold change vs veh, OGT / RFU, BRD1 / Fold change vs veh, BRD1 / RFU, MARS / Fold change vs veh, MARS / RFU, ZNF655 / Fold change vs veh, ZNF655 / RFU, FAHD1 / Fold change vs veh, FAHD1 / RFU, BDP1 / Fold change vs veh, BDP1 / RFU, LRRCC1 / Fold change vs veh, LRRCC1 / RFU, ARID1A / Fold change vs veh, ARID1A / RFU, ZNF146 / Fold change vs veh, ZNF146 / RFU, ZNF330 / Fold change vs veh, ZNF330 / RFU, GPN3 / Fold change vs veh, GPN3 / RFU, C9orf123 / Fold change vs veh, C9orf123 / RFU, N4BP2L2 / Fold change vs veh, N4BP2L2 / RFU, ARFIP1 / Fold change vs veh, ARFIP1 / RFU, FAM179B / Fold change vs veh, FAM179B / RFU, BCL10 / Fold change vs veh, BCL10 / RFU, UHRF1BP1L / Fold change vs veh, UHRF1BP1L / RFU, BET1 / Fold change vs veh, BET1 / RFU, CNOT2 / Fold change vs veh, CNOT2 / RFU, ZNF268 / Fold change vs veh, ZNF268 / Fold change vs veh, ZNF507 / RFU, DGCR2 / Fold change vs veh, DGCR2 / RFU, WDSUB1 / Fold change vs veh, WDSUB1 / Fold change vs veh, HSP90B1 /// MIR3652 / RFU, ADSS / Fold change vs veh, ADSS / RFU, GK / Fold change vs veh, GK / RFU, ZNF148 / Fold change vs veh, ZNF148 / RFU, TAF9 / Fold change vs veh, TAF9 / RFU, SLC1A5 / Fold change vs veh, SLC1A5 / RFU, SLMO2 / Fold change vs veh, SLMO2 / RFU, ABCC4 / Fold change vs veh, ABCC4 / RFU, LOC101060439 /// RAP1B / Fold change vs veh, LOC101060439 /// RAP1B / RFU, RFX7 / Fold change vs veh, RFX7 / RFU, GTPBP10 / Fold change vs veh, GTPBP10 / RFU, CNEP1R1 / Fold change vs veh, CNEP1R1 / RFU, BIVM-ERCC5 /// ERCC5 / Fold change vs veh, BIVM-ERCC5 /// ERCC5 / RFU, ILF3 / Fold change vs veh, ILF3 / RFU 11762660_at / Fold change /veh 11762660_at / RFU VCAN (11757783_s_at) / Fold change /veh VCAN (11757783_s_at) / RFU DDX43 (11728927_at) / Fold change /veh DDX43 (11728927_at) / RFU KRT8 (11758188_x_at) / Fold change /veh KRT8 (11758188_x_at) / RFU NKD1 (11759106_at) / Fold change /veh NKD1 (11759106_at) / RFU SRD5A1 (11742802_a_at) / Fold change /veh SRD5A1 (11742802_a_at) / RFU TPSAB1 /// TPSB2 (11721975_s_at) / Fold change /veh TPSAB1 /// TPSB2 (11721975_s_at) / RFU GSTM3 (11746129_a_at) / Fold change /veh GSTM3 (11746129_a_at) / RFU IL23R (11737362_x_at) / Fold change /veh IL23R (11737362_x_at) / RFU TMEM51 (11727254_a_at) / Fold change /veh TMEM51 (11727254_a_at) / RFU PIWIL2 (11732686_x_at) / Fold change /veh PIWIL2 (11732686_x_at) / RFU ORM1 (11744905_x_at) / Fold change /veh ORM1 (11744905_x_at) / RFU CCDC152 (11743942_at) / Fold change /veh CCDC152 (11743942_at) / RFU ECM1 (11717891_a_at) / Fold change /veh ECM1 (11717891_a_at) / RFU IL23R (11748794_a_at) / Fold change /veh IL23R (11748794_a_at) / RFU TNFAIP8L3 (11732012_x_at) / Fold change /veh TNFAIP8L3 (11732012_x_at) / RFU MBOAT4 (11741988_at) / Fold change /veh MBOAT4 (11741988_at) / RFU 11764193_at / Fold change /veh 11764193_at / RFU TMEM53 (11763286_at) / Fold change /veh TMEM53 (11763286_at) / RFU MAGEB2 (11727129_at) / Fold change /veh MAGEB2 (11727129_at) / RFU TMEM200A (11744735_a_at) / Fold change /veh TMEM200A (11744735_a_at) / RFU CCDC152 (11751479_a_at) / Fold change /veh CCDC152 (11751479_a_at) / RFU FAM211A (11726209_a_at) / Fold change /veh FAM211A (11726209_a_at) / RFU RGS16 (11746705_a_at) / Fold change /veh RGS16 (11746705_a_at) / RFU VCAN (11755009_s_at) / Fold change /veh VCAN (11755009_s_at) / RFU RHOB (11743442_s_at) / Fold change /veh RHOB (11743442_s_at) / RFU RGS16 (11720943_a_at) / Fold change /veh RGS16 (11720943_a_at) / RFU RGS16 (11720944_at) / Fold change /veh RGS16 (11720944_at) / RFU, VPS4B / Fold change vs veh, VPS4B / RFU, CREB1 / Fold change vs veh, CREB1 / RFU, DNAJC13 / Fold change vs veh, DNAJC13 / RFU, GNAQ / Fold change vs veh, GNAQ / RFU, CDK5R1 / Fold change vs veh, CDK5R1 / RFU, ZRANB3 / Fold change vs veh, ZRANB3 / RFU, CUL4A / Fold change vs veh, CUL4A / RFU, CCNY / Fold change vs veh, CCNY / RFU, UFL1 / Fold change vs veh, UFL1 / RFU, COG3 / Fold change vs veh, COG3 / RFU, DIAPH2 / Fold change vs veh, DIAPH2 / RFU, SKA2 / Fold change vs veh, SKA2 / RFU, AFF3 / Fold change vs veh, AFF3 / RFU, LMF1 / Fold change vs veh, LMF1 / RFU, IPO11 / Fold change vs veh, IPO11 / RFU, DFFB / Fold change vs veh, DFFB / RFU, FOXP1 / Fold change vs veh, FOXP1 / RFU, CARD8 / Fold change vs veh, CARD8 / RFU, STRN3 / Fold change vs veh, STRN3 / RFU, ADK / Fold change vs veh, ADK / RFU, RASSF2 / Fold change vs veh, RASSF2 / RFU, WIPF1 / Fold change vs veh, WIPF1 / RFU, LARP1B / Fold change vs veh, LARP1B / RFU, RASA1 / Fold change vs veh, RASA1 / RFU, RB1 / Fold change vs veh, RB1 / RFU, PPFIA1 / Fold change vs veh, PPFIA1 / RFU, MAT2A / Fold change vs veh, MAT2A / RFU, CCT5 / Fold change vs veh, CCT5 / RFU, WDR92 / Fold change vs veh, WDR92 / RFU, CUX1 / Fold change vs veh, CUX1 / RFU, TTC7A / Fold change vs veh, TTC7A / RFU, TMEM135 / Fold change vs veh, TMEM135 / RFU, DEPTOR / Fold change vs veh, DEPTOR / RFU, CPM / Fold change vs veh, CPM / RFU, DNAJB6 / Fold change vs veh, DNAJB6 / RFU, CACNA2D3 / Fold change vs veh, CACNA2D3 / RFU, DTX4 / Fold change vs veh, DTX4 / RFU, TFCP2 / Fold change vs veh, TFCP2 / RFU, GMCL1 /// GMCL1P1 / Fold change vs veh, GMCL1 /// GMCL1P1 / RFU, AEBP2 / Fold change vs veh, AEBP2 / RFU, SNHG1 /// SNORD22 /// SNORD25 /// SNORD26 /// SNORD27 /// SNORD28 /// SNORD29 /// SNORD31 / Fold change vs veh, SNHG1 /// SNORD22 /// SNORD25 /// SNORD26 /// SNORD27 /// SNORD28 /// SNORD29 /// SNORD31 / Fold change (Aza/veh), C12orf56 (ProbeSet 11735607_a_at) / Fold change (ACY-1035/veh), C12orf56 (ProbeSet 11735607_a_at) / Fold change (Aza/veh), FGFR1OP (ProbeSet 11751329_s_at) / Fold change (ACY-1035/veh), FGFR1OP (ProbeSet 11751329_s_at) / Fold change (Aza/veh), VPS36 (ProbeSet 11739960_a_at) / Fold change (ACY-1035/veh), VPS36 (ProbeSet 11739960_a_at) / RFU SYPL1 (11715823_x_at) / Fold change /veh SYPL1 (11715823_x_at) / RFU IGFBP7 (11715501_s_at) / Fold change /veh IGFBP7 (11715501_s_at) / RFU REEP3 (11722064_at) / Fold change /veh REEP3 (11722064_at) / RFU IGLL1 (11728026_x_at) / Fold change /veh IGLL1 (11728026_x_at): dose or concentration left out as unconfirmed
# Conditions: MV-4-11 cells, 48 hours
structure (smiles),measurement,value
Nc1ncn([C@@H]2O[C@H](CO)[C@@H](O)[C@H]2O)c(=O)n1 [azacitidine],RFU NPB (11741838_a_at),80.08 RFU
